# pIC50: −log10 of the molar value.
# Test system: IL-12 production in human PBMC or THP-1 cells
# Experiment: In vitro inhibition of IL-12 production in stimulated human PBMC or THP-1 cells (ELISA)
# Format: cell-based
# Conditions: representative in vitro IC50 data
# Source text: The biological activities of a heterocyclic compound can be evaluated by a number of cell-based assays. One of such assays can be conducted using cells from human peripheral blood mononuclear cells (PBMC) or human monocytic cell line (THP-1). The cells are stimulated with a combination of human interferon-γ (IFNγ) and lipopolysaccharide or a combination of IFNγ and Staphylococcus aureus Cowan I in the presence of a test compound. The level of inhibition of IL-12 production can be measured by determining the amount of p70 by using a sandwich ELISA assay with anti-human IL-12 antibodies. IC50 of the test compound can then be determined. Specifically, PBMC or THP-1 cells are incubated with the test compound. Cell viability was assessed using the bioreduction of MTS [3-(4,5-dimethylthiazol-2-yl)-5-(3-carboxymethoxyphenyl)-2-(4-sulfophenyl)-2H-tetrazolium] (Promega, Madison, Wis.).
# Reagents. Staphylococcus aureus Cowan I (SAC) was obtained from Calbiochem (La Jolla, Calif.), and lipopolysaccharide (LPS, Serratia marscencens) was obtained from Sigma (St. Louis, Mo.). Human and mouse recombinant IFNγ were purchased from Boehringer Mannheim (Mannheim, Germany) and Pharmingen (San Diego, Calif.), respectively.
# Human In Vitro Assay. Human PBMC were isolated by centrifugation using Ficoll-Paque (Pharmacia Biotech, Uppsala, Sweden) and prepared in RPMI medium supplemented with 10% fetal calf serum (FCS), 100 U/mL penicillin, and 100 μg/mL streptomycin. PBMC were plated in wells of a 96-well plate at a concentration of 5×10^5 cells/well, and primed by adding IFNγ (30 U/mL) for 22 h and stimulated by adding LPS (1 μg/mL), or by adding IFNγ (100 U/mL) and then stimulated by adding SAC (0.01%). A test pyrimidine compound was dissolved in DMSO, and added to wells of the 96-well plate. The final DMSO concentration was adjusted to 0.25% in all cultures, including the compound-free control. Human THP-1 cells were plated in wells, primed by adding IFNγ (100 U/mL) for 22 h and stimulated by adding SAC (0.025%) in the presence of different concentrations of the pyrimidine compound. Cell-free supernatants were taken 18 h later for measurement of cytokines. Cell viability was assessed using the bioreduction of MTS. Cell survival was estimated by determining the ratio of the absorbance in compound-treated groups versus compound-free control.
# The supernatant was assayed for the amount of IL-12p40, IL-12p70, or IL-10 by using a sandwich ELISA with anti-human antibodies, i.e., a Human IL-12 p40 ELISA kit from R&D Systems (Berkeley, Calif.), and a Human IL-12 p70 or IL-10 ELISA kit from Endogen (Cambridge, Mass.). Assays were based on the manufacturer's instructions.
# The biological activities of pyrimidine compounds were tested on human PBMC or THP-1 cells. Unexpectedly, some of the test compounds have IC50 values as low as <1 nM.
row,SMILES,pIC50
1,"Cc1cccc(/C=N/Nc2cc(N3CCOCC3)nc(OCCOC(=O)Nc3cccnc3)n2)c1 [Compound 106, Pyridin-3-yl-carbamic acid 2-{4-[N′-(3-methyl-benzylidene)-hydrazino]-6-morpholin-4-yl-pyrimidin-2-yloxy}-ethyl ester]",> 7.60
2,"COC(=O)c1ccc(NC(=O)OCCc2nc(N/N=C/c3cccc(C)c3)cc(N3CCOCC3)n2)cc1 [Compound 23, 4-(2-{4-[N′-(3-Methyl-benzylidene)-hydrazino]-6-morpholin-4-yl-pyrimidin-2-yl}-ethoxycarbonylamino)-benzoic acid methyl ester]",> 7.60
3,"Cc1cccc(/C=N/Nc2cc(N3CCOCC3)nc(CC(C)(C)OC(=O)Nc3ccc(C(F)(F)F)cc3)n2)c1 [Compound 30, (4-Trifluoromethyl-phenyl)-carbamic acid 1,1-dimethyl-2-{4-[N′-(3-methyl-benzylidene)-hydrazino]-6-morpholin-4-yl-pyrimidin-2-yl}-ethyl ester]",> 7.60
4,"Cc1cccc(/C=N/Nc2cc(N3CCOCC3)nc(CCCOC(=O)Nc3cccc4ccccc34)n2)c1 [Compound 10, Naphthalen-1-yl-carbamic acid 3-{4-[N′-(3-methyl-benzylidene)-hydrazino]-6-morpholin-4-yl-pyrimidin-2-yl}-propyl ester]",< 7.30
5,"Cc1cccc(/C=N/Nc2cc(N3CCOCC3)nc(CCOC(=O)Nc3ccc(C#N)cc3)n2)c1 [Compound 22, (4-Cyano-phenyl)-carbamic acid 2-{4-[N′-(3-methyl-benzylidene)-hydrazino]-6-morpholin-4-yl-pyrimidin-2-yl}-ethyl ester]",> 7.60
6,"Cc1cccc(/C=N/Nc2cc(N3CCOCC3)nc(CCOC(=O)Nc3ccccc3)n2)c1 [Compound 24, Phenyl-carbamic acid 2-{4-[N′-(3-methyl-benzylidene)-hydrazino]-6-morpholin-4-yl-pyrimidin-2-yl}-ethyl ester]",> 7.60
7,"Cc1cccc(/C=N/Nc2cc(N3CCOCC3)nc(CCSc3nnnn3CCN(C)C)n2)c1 [Compound 18, Dimethyl-{2-[5-(2-{4-[N′-(3-methyl-benzylidene)-hydrazino]-6-morpholin-4-yl-pyrimidin-2-yl}-ethylsulfanyl)-tetrazol-1-yl]-ethyl}-amine]",> 7.60
8,"Cc1cccc(/C=N/Nc2cc(N3CCOCC3)nc(CCNS(=O)(=O)N(C)C)n2)c1 [Compound 54, 1,1-Dimethyl-3-(2-{4-[N′-(3-methyl-benzylidene)-hydrazino]-6-morpholin-4-yl-pyrimidin-2-yl}-ethyl)-sulfamide]",> 7.60
9,"Cc1ccc(NC(=O)OCCOc2nc(N/N=C/c3cccc(C)c3)cc(N3CCOCC3)n2)cc1 [Compound 19, p-Tolyl-carbamic acid 2-{4-[N′-(3-methyl-benzylidene)-hydrazino]-6-morpholin-4-yl-pyrimidin-2-yloxy}-ethyl ester]",> 7.60
10,"Cc1cccc(/C=N/Nc2cc(N3CCOCC3)nc(OCC(C)(C)OC(=O)Nc3cccc(C(F)(F)F)c3)n2)c1 [Compound 28, (3-Trifluoromethyl-phenyl)-carbamic acid 1,1-dimethyl-2-{4-[N′-(3-methyl-benzylidene)-hydrazino]-6-morpholin-4-yl-pyrimidin-2-yloxy}-ethyl ester]",> 7.60
11,"Cc1cccc(/C=N/Nc2cc(N3CCOCC3)nc(CCC(C)(C)OC(=O)Nc3cccc(C(F)(F)F)c3)n2)c1 [Compound 27, (3-Trifluoromethyl-phenyl)-carbamic acid 1,1-dimethyl-3-{4-[N′-(3-methyl-benzylidene)-hydrazino]-6-morpholin-4-yl-pyrimidin-2-yl}-propyl ester]",< 7.30
12,"Cc1cccc(/C=N/Nc2cc(N3CCOCC3)nc(CCOC(=O)Nc3ccc(C(C)C)cc3)n2)c1 [Compound 20, (4-Isopropyl-phenyl)-carbamic acid 2-{4-[N′-(3-methyl-benzylidene)-hydrazino]-6-morpholin-4-yl-pyrimidin-2-yl}-ethyl ester]",< 7.30
13,"CCNC(=O)OCCc1nc(N/N=C/c2cccc(C)c2)cc(N2CCOCC2)n1 [Compound 17, Ethyl-carbamic acid 2-{4-[N′-(3-methyl-benzylidene)-hydrazino]-6-morpholin-4-yl-pyrimidin-2-yl}-ethyl ester]",> 7.60
14,"Cc1cccc(/C=N/Nc2cc(N3CCOCC3)nc(CCOC(=O)Nc3ccc(Cl)cc3)n2)c1 [Compound 21, (4-Chloro-phenyl)-carbamic acid 2-{4-[N′-(3-methyl-benzylidene)-hydrazino]-6-morpholin-4-yl-pyrimidin-2-yl}-ethyl ester]",7.30 to 7.60
15,"Cc1cccc(/C=N/Nc2cc(N3CCOCC3)nc(CCCOC(=S)Nc3cccnc3)n2)c1 [Compound 9, Pyridin-3-yl-thiocarbamic acid O-(3-{4-[N′-(3-methyl-benzylidene)-hydrazino]-6-morpholin-4-yl-pyrimidin-2-yl}-propyl) ester]",> 7.60
16,"Cc1ccc(NC(=O)OCCCc2nc(N3CCOCC3)cc(N(C)/N=C/c3cccc(C)c3)n2)cc1 [Compound 14, p-Tolyl-carbamic acid 3-{4-[N-methyl-N′-(3-methyl-benzylidene)-hydrazino]-6-morpholin-4-yl-pyrimidin-2-yl}-propyl ester]",> 7.60
17,"Cc1cccc(/C=N/Nc2cc(N3CCOCC3)nc(CC(C)(C)OC(=O)Nc3cccc(C(F)(F)F)c3)n2)c1 [Compound 29, (3-Trifluoromethyl-phenyl)-carbamic acid 1,1-dimethyl-2-{4-[N′-(3-methyl-benzylidene)-hydrazino]-6-morpholin-4-yl-pyrimidin-2-yl}-ethyl ester]",< 7.30
18,"CCNC(=O)OCCCc1nc(N/N=C/c2cccc(C)c2)cc(N2CCOCC2)n1 [Compound 8, Ethyl-carbamic acid 3-{4-[N′-(3-methyl-benzylidene)-hydrazino]-6-morpholin-4-yl-pyrimidin-2-yl}-propyl ester]",> 7.60
19,"Cc1ccc(NC(=O)OCCc2nc(N/N=C/c3cccc(C)c3)cc(N3CCOCC3)n2)cc1 [Compound 13, p-Tolyl-carbamic acid 2-{4-[N′-(3-methyl-benzylidene)-hydrazino]-6-morpholin-4-yl-pyrimidin-2-yl}-ethyl ester]",> 7.60
20,"Cc1cccc(/C=N/Nc2cc(N3CCOCC3)nc(CCSc3nnc(-c4ccncc4)[nH]3)n2)c1 [Compound 25, N-(3-Methyl-benzylidene)-N′-{6-morpholin-4-yl-2-[2-(5-pyridin-4-yl-4H-[1,2,4]triazol-3-ylsulfanyl)-ethyl]-pyrimidin-4-yl}-hydrazine]",> 7.60
21,"Cc1ccc(NC(=O)OC(C)(C)Cc2nc(N/N=C/c3cccc(C)c3)cc(N3CCOCC3)n2)cc1 [Compound 16, p-Tolyl-carbamic acid 1,1-dimethyl-2-{4-[N′-(3-methyl-benzylidene)-hydrazino]-6-morpholin-4-yl-pyrimidin-2-yl}-ethyl ester]",> 7.60
22,"Cc1ccc(NC(=O)OCCCc2nc(N/N=C/c3cccc(C)c3)cc(N3CCOCC3)n2)cc1 [Compound 3, p-Tolyl-carbamic acid 3-{4-[N′-(3-methyl-benzylidene)-hydrazino]-6-morpholin-4-yl-pyrimidin-2-yl}-propyl ester]",> 7.60
23,"Cc1cccc(/C=N/Nc2cc(N3CCOCC3)nc(CCC(C)(C)OC(=O)Nc3cccc(C)c3)n2)c1 [Compound 26, m-Tolyl-carbamic acid 1,1-dimethyl-3-{4-[N′-(3-methyl-benzylidene)-hydrazino]-6-morpholin-4-yl-pyrimidin-2-yl}-propyl ester]",7.30 to 7.60
24,"Cc1cccc(/C=N/Nc2cc(N3CCOCC3)nc(CCOC(=O)Nc3ccc([N+](=O)[O-])cc3)n2)c1 [Compound 15, (4-Nitro-phenyl)-carbamic acid 2-{4-[N′-(3-methyl-benzylidene)-hydrazino]-6-morpholin-4-yl-pyrimidin-2-yl}-ethyl ester]",> 7.60
25,"Cc1cccc(/C=N/N(C)c2cc(N3CCOCC3)nc(CCCOC(=O)Nc3cccc(C(F)(F)F)c3)n2)c1 [Compound 4, (3-Trifluoromethyl-phenyl)-carbamic acid 3-{4-[N-methyl-N′-(3-methyl-benzylidene)-hydrazino]-6-morpholin-4-yl-pyrimidin-2-yl}-propyl ester]",< 7.30

# From patent US7872005B2, “2-substituted heteroaryl compounds” (Synta Pharmaceuticals Corporation, priority 2004, dated 2011)
